# Values quoted from earlier work as cited in patent US20110136769A1, “METHOD OF TREATING MEN WITH TE[…] 5ALPHA-REDUCTASE INHIBITOR” (Merck Sharp & Dohme Corp., priority 2007, published 2011).
# What was measured:
# 5α-reductase type 2 = biological target: T1, 5α-reductase type 2 (Homo sapiens, UniProt P31213); conditions: background statement
# T1 construct: Samples of human tissue were pulverized using a freezer mill and homogenized; from tissue; host or cells: human prostate (crude nuclear pellet of homogenate)
# T1 sequence (P31213 1-254): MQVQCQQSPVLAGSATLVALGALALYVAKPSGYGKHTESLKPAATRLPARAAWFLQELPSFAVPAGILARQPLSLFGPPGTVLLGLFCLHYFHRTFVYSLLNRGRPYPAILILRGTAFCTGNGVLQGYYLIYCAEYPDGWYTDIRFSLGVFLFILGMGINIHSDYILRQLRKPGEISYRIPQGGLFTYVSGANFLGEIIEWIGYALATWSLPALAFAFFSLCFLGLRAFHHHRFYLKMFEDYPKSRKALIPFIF
# 5α-reductase type 1 = biological target: T2, 5α-reductase type 1 (Homo sapiens, UniProt P18405); conditions: background statement
# T2 construct: Samples of human tissue were pulverized using a freezer mill and homogenized; from tissue; host or cells: human scalp (crude nuclear pellet of homogenate)
# T2 sequence (P18405 1-259): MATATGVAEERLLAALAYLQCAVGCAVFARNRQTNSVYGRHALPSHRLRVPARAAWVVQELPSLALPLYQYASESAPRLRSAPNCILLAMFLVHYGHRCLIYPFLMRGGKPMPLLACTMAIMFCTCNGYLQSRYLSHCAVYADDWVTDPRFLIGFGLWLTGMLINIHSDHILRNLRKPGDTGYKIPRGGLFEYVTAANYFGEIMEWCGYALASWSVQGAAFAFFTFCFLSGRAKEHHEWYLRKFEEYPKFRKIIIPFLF
Structure (SMILES),inhibition of the human type 2 enzyme (5α-reductase type 2),inhibition of 5α-reductase type 1 (5α-reductase type 1)
"CC(C)(C)NC(=O)[C@H]1CCC2C3CCC4NC(=O)C=C[C@]4(C)C3CC[C@@]21C (stereo partly drawn) [Finasteride, 17β-(N-tert-butylcarbamoyl)-3-oxo-4-aza-5α-androst-1-en-3-one]",potent inhibitor,
C[C@]12C=CC(=O)N[C@@H]1CC[C@@H]1[C@@H]2CC[C@]2(C)[C@@H](C(=O)Nc3cc(C(F)(F)F)ccc3C(F)(F)F)CC[C@@H]12 [dutasteride],potent inhibitors,potent inhibitors
